Earlier results on three substances are cited in article PMC2916017 (Journal of biomedical optics, 2009).

Broadly, the Km is the substrate concentration at which the rate is half of its maximum. As a reminder, the kcat is the number of substrate molecules converted per active site and unit of time at saturation.

The target of one data set is T1, caspase-3 (Homo sapiens, UniProt P42574).
T1 sequence (P42574 29-175 limits assumed): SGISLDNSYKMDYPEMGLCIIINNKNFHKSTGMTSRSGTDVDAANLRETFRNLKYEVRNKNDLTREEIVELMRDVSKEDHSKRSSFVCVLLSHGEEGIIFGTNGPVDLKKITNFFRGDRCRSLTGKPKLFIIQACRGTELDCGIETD
T1 sequence (P42574 176-277 limits assumed): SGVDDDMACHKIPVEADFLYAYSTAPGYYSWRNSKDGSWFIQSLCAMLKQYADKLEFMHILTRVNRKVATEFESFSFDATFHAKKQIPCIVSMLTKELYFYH
Conditions: standard substrate, comparison value; no reference given.

For a further data set, the system named is αvβ3–positive tumor. Conditions: previous work; specific activities 200–500 Ci/mmol.

Regarding Ac-DEVD-AMC, at caspase-3, the Km was 9.7 µM and the kcat was 0.75 s⁻¹.
With ^64Cu-DOTA-c(RGDyK) (head to tail), in the data set with αvβ3–positive tumor, the “tumor visualization by small animal PET” value is “receptor specific tumor accumulation allowed for αvβ3–positive tumor visualization by small animal PET”.
Turning to Ac-DEVD-pNA, the Km on caspase-3 was 11 µM.
